Reference: patent publication US7838234B2, “Methods for determining cancer resistance to histone deacetylase inhibitors” (Pharmacyclics, Inc., priority 2007, dated 2010)

Tests used:
[1] = tested on: Multiple Myeloma primary tumor cells; assay: Soft agar tritiated thymidine assay of primary human tumor samples, EDR/IDR/LDR classification: multiple myeloma; assay type: cell-based
Description: (§1) Subsequently, primary human tumor samples were obtained and viable tumor cells were plated in soft agar and treated with the HDAC inhibitor PCI-24781. Tritiated thymidine was added after 3 days, and 2 days later the radioactivity incorporated into the DNA was quantified. The tumors were then classified as either resistant (EDR: Extreme Drug Resistance), sensitive (LDR) or intermediate (IDR) based on deviation from the median profile (Oncotech, Inc. Tustin, Calif.). As predicted based on the HDACi responsive biomarker gene profiles hematopoietic tumors had the lowest proportion of resistant (EDR) tumors, and colon the most (38%). Among the solid tumors, ovarian had the lowest proportion of resistant tumors, consistent with the high HDACi-biomarker responsiveness of this tissue.

[2] = tested on: advanced metastatic colon tumor cells; assay: Ex vivo growth inhibition of advanced metastatic colon tumor cells; assay type: cell-based, human; conditions: in a number of cases, FIG. 11B
[3] = tested on: Ovarian primary tumor cells; assay: Soft agar tritiated thymidine assay of primary human tumor samples, EDR/IDR/LDR classification: ovarian; assay type: cell-based
Description: as §1

[4] = tested on: primary colorectal tumors (colon carcinoma biopsies); assay: Soft agar chemosensitivity assay (tritiated thymidine incorporation) of primary colorectal tumors ex vivo; assay type: cell-based, human
Text: The method used soft agar chemosensitivity assays in which primary human tumors were exposed in culture to PCI-24781. Either a trititated thymidine or alamar blue assay was then used to estimate the percentage of resistance to PCI-24781. For example in the trititated thymidine assay, sensitive tumor cells affected by the drug divided less and therefore incorporated less thymidine, whereas resistant tumor cells continued to grow and divide and therefore incorporated more thymidine into their DNA.
Primary colorectal cancer (CRC) samples were obtained from patient biopsies (Table 2). Viable tumor cells were plated and cultured in soft agar as described in Kern et al. (1990), J. Natl. Cancer Inst., 82:582-588, and were treated with a range of PCI-24781 concentrations (0.01-2 μM). Tritiated thymidine was added to the culture after 3 days of exposure to the drug, and the amount of radioactivity incorporated into the cells after a further 2 days was quantified. The percentage of cell growth inhibition (% GI) was calculated by comparing the treated cells to the control cells, and from these growth profiles the tumors were classified as either sensitive or resistant based on deviation from the median profile.
Subsequently, primary human tumor samples were obtained and viable tumor cells were plated in soft agar and treated with the HDAC inhibitor PCI-24781. Tritiated thymidine was added after 3 days, and 2 days later the radioactivity incorporated into the DNA was quantified. The tumors were then classified as either resistant (EDR: Extreme Drug Resistance), sensitive (LDR) or intermediate (IDR) based on deviation from the median profile (Oncotech, Inc. Tustin, Calif.).

[5] = tested on: acetylated tubulin in PBMC; assay: Tubulin acetylation in peripheral blood mononuclear cells of treated mice (immunoblotting); assay type: in vivo, mouse; conditions: female BALB/c mice, 50 mg/kg IV, 0.25-8 hours after dosing
Description: In brief, female BALB/c mice were injected IV with 50 mg/kg PCI-24781 or vehicle. Blood and various tissues were collected at 0.25, 0.5, 1, 2, 3 & 8 hours after dosing. For acetylated histone and tubulin detection, organs/tissues were pooled for each vehicle and drug-treated organ group. RNA and protein were extracted from the samples with the PARIS Protein and RNA Isolation System (Ambion). Levels of acetylated and total α-tubulin & histones were evaluated by immunoblotting.

[6] = tested on: HDACi-responsive biomarker genes; assay: Taqman mRNA levels of HDACi-responsive biomarker genes in mouse tissues after dosing; assay type: in vivo; conditions: mice, 50 mg/kg, 3 and 8 hours after administration, 13 tissues
Description: RNA expression profiles were determined using on a GE-Codelink Mouse Unisetl 10K oligonucleotide arrays in duplicate. Each treated sample was normalized to the corresponding vehicle control. In order to validate the expression profile of HDADi-responsive genes identified by the gene expression array assays, Taqman gene expression assays were performed using Applied Biosystems Inc. assays. One-step RT-PCR was carried out in triplicate on 25 ng of total RNA from each sample on a ABI PRISM 7700 instrument. The mRNA levels for each gene were normalized to the amount of RNA in the well as measured in parallel using Ribogreen (Molecular Probes). The treated samples were then normalized to the vehicle control at that time point. We then determined the in vivo expression levels for five of the RDACi-responsive biomarker genes in various tissues following 3 hours or 8 hours following administration of PCI-24781 (50 mg/kg). A Taqman assay was performed to determine mRNA expression levels in brain, colon, kidney, liver, stomach, ovary, uterus, mammary, muscle, heart, lung, spleen, and pancreas. The issue distribution pattern was very reproducible across the biomarker set.

[7] = tested on: primary colon tumor cells from newly diagnosed, naive patients; assay: Ex vivo growth inhibition of primary colon tumor cells from newly diagnosed, naive patients; assay type: cell-based, human; conditions: ex vivo cultured cells from twelve patients, FIG. 11A
[8] = tested on: HDACi resistance biomarker genes in colorectal tumor cells; assay: Microarray gene expression profiling of colorectal tumor cells treated with PCI-24781 or untreated; assay type: cell-based, human; conditions: PCI-24781 2 μM vs untreated
Description: After determining tumor sensitivity to PCI-24781, gene expression profiles were determined for resistant and sensitive tumors that were treated with PCI-24781 (2 μM) or untreated. Total RNA was isolated using Qiagen procedures (Qiagen, Inc., Valencia, Calif.) and fluorescent probes were prepared and hybridized to Codelink Human Whole Genome oligonucleotide microarrays containing ˜55,000 unique probes (GE Healthcare Bio-Sciences Corp., Piscataway, N.J.) according to the manufacturer's instructions. The microarrays were scanned in a GenePix 4000B scanner (Molecular Devices Corporation, Sunnyvale Calif.). The images were processed with Codelink software and the exported data was analyzed as follows.
The median-normalized microarray data were imported into Genespring software (Agilent), and principal component analysis (PCA) and hierarchical clustering analysis were performed. We looked for consistent results from multiple analysis methods to provide additional confidence in our results. For multiple hypothesis correction, we used the q-values approach for false discovery rates (FDR) as described in Storey et al. (2003), Proc. Nat. Acad. Sci. USA, 100:9440-9445. As a second analytical approach we adopted the Bayesian ANOVA approach described in Ishwaran et al. (2003), J. Amer. Stat. Assoc., 98:438-455. […]

[9] = tested on: Glioblastoma primary tumor cells; assay: Soft agar tritiated thymidine assay of primary human tumor samples, EDR/IDR/LDR classification: glioblastoma; assay type: cell-based
Description: as §1

AML primary tumor cells = assay: Soft agar tritiated thymidine assay of primary human tumor samples, EDR/IDR/LDR classification: AML; assay type: cell-based
Description: as §1

SMILES: CN(C)Cc1c(C(=O)NCCOc2ccc(C(=O)NO)cc2)oc2ccccc12 [PCI-24781]
- % Resistance [1]: 33%
- Intermediate IDR (number of tumors) ([1]; of 6 tumors): 0
- Resistant EDR (number of tumors) ([1]; of 6 tumors): 2
- Sensitive LDR (number of tumors) ([1]; of 6 tumors): 4
- sensitivity to growth inhibition [2]: resistant
- % Resistance [3]: 25%
- Intermediate IDR (number of tumors) ([3]; of 12 tumors): 4
- Resistant EDR (number of tumors) ([3]; of 12 tumors): 3
- Sensitive LDR (number of tumors) ([3]; of 12 tumors): 5
- % Resistance [4]: 38%
- Intermediate IDR (number of tumors) ([4]; of 24 tumors): 3
- Resistant EDR (number of tumors) ([4]; of 24 tumors): 9
- Sensitive LDR (number of tumors) ([4]; of 24 tumors): 12
- tubulin acetylation levels in PBMC [5]: increases
- tissue with highest induction of mRNA of five HDACi-responsive biomarker genes [6]: Ovary showed the highest level of induction, followed by uterus
- sensitivity to growth inhibition [7]: all sensitive
- effect of treatment on expression of the identified resistance biomarker genes [8]: not altered
- % Resistance [9]: 29%
- Intermediate IDR (number of tumors) ([9]; of 7 tumors): 1
- Resistant EDR (number of tumors) ([9]; of 7 tumors): 2
- Sensitive LDR (number of tumors) ([9]; of 7 tumors): 4
- % Resistance (AML primary tumor cells): 10%
- Intermediate IDR (number of tumors) (AML primary tumor cells; of 10 tumors): 4
- Resistant EDR (number of tumors) (AML primary tumor cells; of 10 tumors): 1
- Sensitive LDR (number of tumors) (AML primary tumor cells; of 10 tumors): 5
